A short description of data set [1]: In vitro stability testing in 2% hog kidney homogenate. As to conditions: for half-life at 0.5 mg/ml: pig, kidney or brush border membranes. Type of data set: in vitro ADME. The method, then:
Like most small linear polypeptides, motilin is believed to be metabolized by the brush border cells of the kidney. Therefore, kidney homogenate was chosen as the model system for assessing the relative in vivo biostability of the peptides of this invention. All peptides to be studied were incubated in hog kidney (Pel Freeze, Inc., Rogers, Ark.) (2% w/v; final volume=4 mls; buffer=HEPES pH 7.0) at 25° C. […] In order to determine suitable incubation times and sampling intervals, two experiments were conducted with each polypeptide. The first run served as a rough estimate of peptide stability. All sampling was performed in duplicate. Sample volume was 180 μl. Sample clean-up was performed by addition of 20 μl of 100% TCA (final volume=200 μl; final TCA concentration=10%). The sample was vortexed from 5 to 10 seconds to ensure equilibration, then centrifuged to spin out the precipitated proteins. Analysis was carried out on a Waters HPLC system with autoinjector, a 5 μVydac C-18 analytical column, and a Waters 481 UV detector set at 214 nm. Injection volume was 80 μl. Initial solvent conditions were 20% acetonitrile / 80% (0.1%) TFA in Milli-Q water with a 35 minute gradient running to 63% acetonitrile / 37% (0.1%) TFA at 1 ml/min. Polypeptide substrate and metabolite peaks were ratioed to the internal standard and the duplicate sample ratios were averaged. The average ratio for the peptide substrate was expressed as a percentage and plotted versus time. First-order kinetics was assumed for data treatment. The rate of disappearance of the substrate was calculated using the Enzfitter program (Biosoft). Relative half-lives were determined from the relationship: […]

The target of another data set is T1, motilin receptor (Oryctolagus cuniculus, UniProt G1T803).
T1 construct: from tissue; host or cells: rabbit antral smooth muscle membranes
Briefly: Motilin receptor binding affinity (displacement of [125I-Tyr7,Nle13]motilin(porcine)). More on the design: species or system rabbit. The method, then: The motilin receptor binding affinity of the peptides of this invention was determined by using the general procedure of Bormans, Peeters and Vantrappen, Regul. […] Fitting was performed using the iterative least-squares procedure of the SAS-software package (SAS Institute, Inc., Cary, N.C., USA).

For data set [2], the target named is rabbit duodenal smooth muscle strip (Oryctolagus cuniculus, UniProt G1T803). Briefly: Rabbit duodenal smooth muscle strip tissue bath assay (contractility). Type of data set: cell-based. As to conditions: negative logarithm of dose giving 50% of maximal response to motilin; isotonic contraction of rabbit duodenum segments. The method, then:
The experimental protocol consisted of an equilibration period of 1 hour; a challenge with 10^-4 M acetylcholine followed by a wash-out period; a cumulative dose-response curve of a compound with, at the end, the addition of 10^-7 M motilin; and finally 10^-4 M acetylcholine. If the final response to 10^-4 M acetylcholine differed by more than 5% from the initial response, the results were discarded.

[3] abbreviates: negative logarithm of concentration displacing 50% of [125I-Tyr7,Nle13]motilin(porcine) bound to rabbit antral smooth muscle membranes, read-out: pIC50 (converted).

In general, pEC50 refers to the negative decadic logarithm of the EC50, by convention in mol/L. Higher therefore signals a low EC50.

Read-outs that look alike come from different tables or passages of the source. Positions of bridges follow the written chain, without caps; N, C: chain ends. Non-standard residues stand in square brackets, D forms with d. Residues, ends and D or L forms follow the SMILES beside them. *: point of attachment. X1 = C[N+](C)(C)[C@@H](Cc1ccccc1)C(=O)*; NMeF = CN[C@@H](Cc1ccccc1)C(=O)O; dNMeF = CN[C@H](Cc1ccccc1)C(=O)O Bounds are passed on as bounds.

T1 sequence (G1T803 1-400): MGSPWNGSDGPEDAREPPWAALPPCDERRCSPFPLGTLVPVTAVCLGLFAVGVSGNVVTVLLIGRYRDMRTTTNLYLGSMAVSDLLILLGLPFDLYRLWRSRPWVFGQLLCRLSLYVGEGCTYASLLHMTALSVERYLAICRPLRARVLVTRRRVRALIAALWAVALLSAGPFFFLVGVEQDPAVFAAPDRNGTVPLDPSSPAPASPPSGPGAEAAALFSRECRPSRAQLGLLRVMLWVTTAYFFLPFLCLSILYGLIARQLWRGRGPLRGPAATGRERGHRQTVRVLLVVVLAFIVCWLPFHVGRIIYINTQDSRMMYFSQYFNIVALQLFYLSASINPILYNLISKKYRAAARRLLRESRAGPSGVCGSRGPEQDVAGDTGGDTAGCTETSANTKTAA
Chain of rabbit duodenal smooth muscle strip (G1T803 1-400): as above

On to `CC[C@H](C)[C@H](NC(=O)[C@@H]1CCCN1C(=O)[C@@H](NC(=O)[C@@H](N)Cc1ccccc1)C(C)C)C(=O)N[C@@H](Cc1ccccc1)C(=O)N[C@H](C(=O)N[C@@H](Cc1ccc(O)cc1)C(=O)NCC(=O)N[C@@H](CCC(=O)O)C(=O)N[C@@H](CC(C)C)C(=O)N[C@@H](CCC(N)=O)C(=O)N[C@@H](CCCN=C(N)N)C(=O)N[C@@H](CC(C)C)C(=O)N[C@@H](CCC(N)=O)C(=O)N[C@@H](CCC(=O)O)C(=O)N[C@@H](CCCCN)C(=O)N[C@@H](CCC(=O)O)C(=O)N[C@@H](CCCN=C(N)N)C(=O)N[C@@H](CC(N)=O)C(=O)N[C@@H](CCCCN)C(=O)NCC(=O)N[C@@H](CCC(N)=O)C(=O)O)[C@@H](C)O` [SEQ ID NO:3, [Leu^13]pMOT(1-22), reference compound] (H-FVPIFTYGELQRLQEKERNKGQ-OH), for which the half-life at 0.5 mg/ml in data set [1] (2% w/v hog kidney homogenate, HEPES pH 7.0, 25° C., 0.5 mg/ml substrate, first-order kinetics, read-out: T1/2) came to 0.503 h.
`CC[C@H](C)[C@H](NC(=O)[C@@H]1CCCN1C(=O)[C@@H](NC(=O)[C@H](Cc1ccccc1)NC)C(C)C)C(=O)N[C@@H](Cc1ccccc1)C(=O)N[C@H](C(=O)N[C@@H](Cc1ccc(O)cc1)C(=O)NCC(=O)N[C@@H](CCC(=O)O)C(=O)N[C@H]1CC(=O)NCCCC[C@@H](C(=O)N[C@H](CCCCN)C(N)=O)NC(=O)[C@H](CC(C)C)NC(=O)[C@H](CCCNC(=N)N)NC(=O)[C@H](C)NC1=O)[C@@H](C)O` [SEQ ID NO:9, cyclo^10,14 [N-MePhe^1,Asp^10,Ala^11,Leu^13,Lys^14,D-Lys^15]pMOT(1-15) amide] (H-[NMeF]VPIFTYGEDARLK[dK]-NH2; lactam 10-14) had an IC50 at motilin receptor of 0.661 nM. Moreover, the negative-log EC50 (pEC50) in data set [2] is on record as 7.89.
For the molecule `CC[C@H](C)[C@H](NC(=O)[C@@H]1CCCN1C(=O)[C@@H](NC(=O)[C@H](Cc1ccccc1)[N+](C)(C)C)C(C)C)C(=O)N[C@@H](Cc1ccccc1)C(=O)N[C@H](C(=O)N[C@@H](Cc1ccc(O)cc1)C(=O)NCC(=O)N[C@@H](CCC(=O)O)C(=O)N[C@H]1CC(=O)NCCCC[C@@H](C(N)=O)NC(=O)[C@H](CC(C)C)NC(=O)[C@H](CCCNC(=N)N)NC(=O)[C@H](C)NC1=O)[C@@H](C)O` [SEQ ID NO:16, cyclo^10,14 [Me3 N^+ Phe^1,Asp^10,Ala^11 Leu^13,Lys^14]pMOT(1-14) amide] (X1-VPIFTYGEDARLK-NH2; lactam 9-13), the IC50 on motilin receptor (setting [3]) was 2.24 nM. In addition, the negative logarithm of the EC50 (pEC50) in data set [2] is 6.98. Moreover, in data set [1] (pH 7), the half-life at 0.5 mg/ml is 1.72 h.
For `CC[C@H](C)[C@H](NC(=O)[C@@H]1CCCN1C(=O)[C@@H](NC(=O)[C@H](Cc1ccccc1)[N+](C)(C)C)C(C)C)C(=O)N[C@@H](Cc1ccccc1)C(=O)N[C@H](C(=O)N[C@@H](Cc1ccc(O)cc1)C(=O)NCC(=O)N[C@@H](CCC(=O)O)C(=O)N[C@H]1CC(=O)NCCCC[C@@H](C(=O)N[C@H](CCCCN)C(N)=O)NC(=O)[C@H](CC(C)C)NC(=O)[C@H](CCCNC(=N)N)NC(=O)[C@H](C)NC1=O)[C@@H](C)O` [SEQ ID NO:11, cyclo^10,14 [Me3 N^+ Phe^1,Asp^10,Ala^11,Leu^13,Lys^14,D-Lys^15]pMOT(1-15) amide] (X1-VPIFTYGEDARLK[dK]-NH2; lactam 9-13), in that order: 1.23 nM, 7.89 and 7.28 h.
As for `CC[C@H](C)[C@H](NC(=O)[C@@H]1CCCN1C(=O)[C@@H](NC(=O)[C@@H](Cc1ccccc1)NC)C(C)C)C(=O)N[C@@H](Cc1ccccc1)C(=O)N[C@H](C(=O)N[C@@H](Cc1ccc(O)cc1)C(=O)NCC(=O)N[C@@H](CCC(=O)O)C(=O)N[C@H]1CCC(=O)NCCCC[C@@H](C(N)=O)NC(=O)[C@H](CC(C)C)NC(=O)[C@H](CCCNC(=N)N)NC(=O)[C@H](CCC(N)=O)NC1=O)[C@@H](C)O` [SEQ ID NO:13, cyclo^10,14 [N-Me-D-Phe^1,Glu^10,Leu^13,Lys^14 pMOT(1-14) amide] (H-[dNMeF]VPIFTYGEEQRLK-NH2; lactam 10-14), the IC50 at motilin receptor (setting [3]) was 5.5 nM. In data set [2], this molecule returned a negative logarithm of the EC50 (pEC50) of 6.87.
The molecule `CC[C@H](C)[C@H](NC(=O)[C@@H]1CCCN1C(=O)[C@@H](NC(=O)[C@H](Cc1ccccc1)[N+](C)(C)C)C(C)C)C(=O)N[C@@H](Cc1ccccc1)C(=O)N[C@H](C(=O)N[C@@H](Cc1ccc(O)cc1)C(=O)NCC(=O)N[C@@H](CCC(=O)O)C(=O)N[C@H]1CCC(=O)NCCCC[C@@H](C(N)=O)NC(=O)[C@H](CC(C)C)NC(=O)[C@H](CCCNC(=N)N)NC(=O)[C@H](CCC(N)=O)NC1=O)[C@@H](C)O` [SEQ ID NO:14, cyclo^10,14 [Me3 N^+ Phe^1,Glu^10,Leu^13,Lys^14]pMOT(1-14) amide] (X1-VPIFTYGEEQRLK-NH2; lactam 9-13) returned a pEC50 in data set [2] of 7.38. Also, the “T1/2” value in data set [1] (pH 7) is over 3.33 h.
Regarding `CC[C@H](C)[C@H](NC(=O)[C@@H]1CCCN1C(=O)[C@@H](NC(=O)[C@H](Cc1ccccc1)NC)C(C)C)C(=O)N[C@@H](Cc1ccccc1)C(=O)N[C@H](C(=O)N[C@@H](Cc1ccc(O)cc1)C(=O)NCC(=O)N[C@@H](CCC(=O)O)C(=O)N[C@H]1CC(=O)NCCCC[C@@H](C(=O)N[C@@H](CCCCN)C(N)=O)NC(=O)[C@H](CC(C)C)NC(=O)[C@H](CCCNC(=N)N)NC(=O)[C@H](C)NC1=O)[C@@H](C)O` [SEQ ID NO:8, cyclo^10,14 [N-MePhe^1,Asp^10,Ala^11,Leu^13,Lys^14,Lys^15]pMOT(1-15) amide] (H-[NMeF]VPIFTYGEDARLKK-NH2; lactam 10-14), at motilin receptor (setting [3]), the IC50 was 1.1 nM. The negative-log EC50 (pEC50) in data set [2] is given as 7.69.
For `CC[C@H](C)[C@H](NC(=O)[C@@H]1CCCN1C(=O)[C@@H](NC(=O)[C@H](Cc1ccccc1)NC)C(C)C)C(=O)N[C@@H](Cc1ccccc1)C(=O)N[C@H](C(=O)N[C@@H](Cc1ccc(O)cc1)C(=O)NCC(=O)N[C@@H](CCC(=O)O)C(=O)N[C@H]1CC(=O)NCCCC[C@@H](C(N)=O)NC(=O)[C@H](CC(C)C)NC(=O)[C@@H](CCCNC(=N)N)NC(=O)[C@H](C)NC1=O)[C@@H](C)O` [SEQ ID NO:23, cyclo^10,14 [N-MePhe^1,Asp^10,Ala^11,D-Arg^12,Leu^13,Lys^14]pMOT(1-14) amide] (H-[NMeF]VPIFTYGEDA[dR]LK-NH2; lactam 10-14), in that order: 11.5 nM and 7.89.
`CC[C@H](C)[C@H](NC(=O)[C@@H]1CCCN1C(=O)[C@@H](NC(=O)[C@H](Cc1ccccc1)[N+](C)(C)C)C(C)C)C(=O)N[C@@H](Cc1ccccc1)C(=O)N[C@H](C(=O)N[C@@H](Cc1ccc(O)cc1)C(=O)NCC(=O)N[C@@H](CCC(=O)O)C(=O)N[C@H]1CC(=O)NCCCC[C@@H](C(N)=O)NC(=O)[C@H](CC(C)C)NC(=O)[C@@H](CCCNC(=N)N)NC(=O)[C@H](C)NC1=O)[C@@H](C)O` [SEQ ID NO:24, cyclo^10,14 [Me3 N^+ Phe^1,Asp^10,Ala^11,D-Arg^12,Leu^13,Lys^14]pMOT(1-14) amide] (X1-VPIFTYGEDA[dR]LK-NH2; lactam 9-13): the IC50 on motilin receptor (setting [3]) is 12.6 nM. This molecule displayed a pEC50 in data set [2] of 7.02.
As for `CC[C@H](C)[C@H](NC(=O)[C@@H]1CCCN1C(=O)[C@@H](NC(=O)[C@@H](N)Cc1ccccc1)C(C)C)C(=O)N[C@@H](Cc1ccccc1)C(=O)N[C@H](C(=O)N[C@@H](Cc1ccc(O)cc1)C(=O)NCC(=O)N[C@@H](CCC(=O)O)C(=O)N[C@H]1CC(=O)NCCCC[C@@H](C(N)=O)NC(=O)[C@H](CC(C)C)NC(=O)[C@H](CCCNC(=N)N)NC(=O)[C@H](CCC(N)=O)NC1=O)[C@@H](C)O` [SEQ ID NO:6, cyclo^10,14 [Asp^10, Leu^13, Lys^14]pMOT(1-14)] (H-FVPIFTYGEDQRLK-NH2; lactam 10-14), the IC50 at motilin receptor (setting [3]) was 1.51 nM. In data set [2], this molecule returned a negative logarithm of the EC50 (pEC50) of 7.77.
The molecule `CC[C@H](C)[C@H](NC(=O)[C@@H]1CCCN1C(=O)[C@@H](NC(=O)[C@@H](N)Cc1ccccc1)C(C)C)C(=O)N[C@@H](Cc1ccccc1)C(=O)N[C@H](C(=O)N[C@@H](Cc1ccc(O)cc1)C(=O)NCC(=O)N[C@@H](CCC(=O)O)C(=O)N[C@@H](CC(C)C)C(=O)N[C@@H](CCC(N)=O)C(=O)N[C@@H](CCCNC(=N)N)C(=O)N[C@@H](CC(C)C)C(=O)N[C@@H](CCC(N)=O)C(=O)O)[C@@H](C)O` [SEQ ID NO:27, [Leu^13]pMOT(1-14), reference compound] (H-FVPIFTYGELQRLQ-OH; N-terminus and C-terminus assumed) came in with a half-life at 0.5 mg/ml in data set [1] (pH 7) of 0.125 h.
